According to PubChem BioAssay AID248 (DTP/NCI, 2004):
“And” between values parts separate entries of the source, which are not always exact repeats. Equal entries are not always repeated. Toxic doses and inconclusive results are not listed. Rule as the data show it: active = T/C of 150% or more; inactive = T/C below 125%.

Test system: L1210 leukemia ip in BDF1 mice, survival T/C
Assay: NCI In Vivo Anticancer Drug Screen. Data for tumor model L1210 Leukemia (intraperitoneal) in B6D2F1 (BDF1) mice
Settings: endpoint: mean survival time, higher = longer survival
Outline: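 Transplantable tumor model; survival measured in treated vs vehicle control mice. Value = treated/control.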

[1] = dose: 50.0 mg/kg/injection, schedule: Q01DX009 (ip), vehicle: Klucel (hydroxypropylcellulose) (HPC)
[2] = dose: 100.0 mg/kg/injection, schedule: Q01DX009 (ip), vehicle: Klucel (hydroxypropylcellulose) (HPC)
[3] = dose: 200.0 mg/kg/injection, schedule: Q01DX009 (ip), vehicle: Klucel (hydroxypropylcellulose) (HPC)
[4] = dose: 400.0 mg/kg/injection, schedule: Q01DX009 (ip), vehicle: Klucel (hydroxypropylcellulose) (HPC)
[5] = dose: 100.0 mg/kg/injection, schedule: Q04DX003 (ip), vehicle: saline with Tween-80
[6] = dose: 200.0 mg/kg/injection, schedule: Q04DX003 (ip), vehicle: saline with Tween-80
[7] = dose: 400.0 mg/kg/injection, schedule: Q04DX003 (ip), vehicle: saline with Tween-80
[8] = dose: 100.0 mg/kg/injection, schedule: Q04DX003 (ip), vehicle: saline
[9] = dose: 200.0 mg/kg/injection, schedule: Q04DX003 (ip), vehicle: saline
[10] = dose: 400.0 mg/kg/injection, schedule: Q04DX003 (ip), vehicle: saline
[11] = dose: 100.0 mg/kg/injection, schedule: Q01DX001 (ip), vehicle: saline
[12] = dose: 200.0 mg/kg/injection, schedule: Q01DX001 (ip), vehicle: saline
[13] = dose: 400.0 mg/kg/injection, schedule: Q01DX001 (ip), vehicle: saline

Measured: T/C

O=CC(O)C(O)C(O)C(O)CO (centres undefined) (tested in a mixture with another compound)
inactive: dose: 6.25 mg/kg/injection, schedule: Q04DX002 (ip), vehicle: saline 95 % of control | dose: 12.5 mg/kg/injection, schedule: Q04DX002 (ip), vehicle: saline 100 % of control | dose: 25.0 mg/kg/injection, schedule: Q04DX002 (ip), vehicle: saline 103 % of control and 91 % of control | dose: 75.0 mg/kg/injection, schedule: Q04DX002 (ip), vehicle: saline 95 % of control | dose: 100.0 mg/kg/injection, schedule: Q04DX002 (ip), vehicle: saline 103 % of control | dose: 150.0 mg/kg/injection, schedule: Q04DX002 (ip), vehicle: saline 95 % of control | dose: 200.0 mg/kg/injection, schedule: Q04DX002 (ip), vehicle: saline 99 % of control | dose: 300.0 mg/kg/injection, schedule: Q04DX002 (ip), vehicle: saline 106 % of control | dose: 400.0 mg/kg/injection, schedule: Q04DX002 (ip), vehicle: saline 102 % of control

Cc1cc2nc(SCC(=O)O)[nH]c2cc1C
inactive: dose: 100.0 mg/kg/injection, schedule: Q01DX009 (ip), vehicle: gum acacia 96 % of control | dose: 100.0 mg/kg/injection, schedule: Q04DX003 (ip), vehicle: gum acacia 99 % of control | dose: 200.0 mg/kg/injection, schedule: Q01DX009 (ip), vehicle: gum acacia 89 % of control | dose: 200.0 mg/kg/injection, schedule: Q04DX003 (ip), vehicle: gum acacia 103 % of control | dose: 400.0 mg/kg/injection, schedule: Q04DX003 (ip), vehicle: gum acacia 93 % of control

COC(=O)c1cc(=O)c2cccc(C(=O)O)c2[nH]1
inactive: [1] 109 % of control | [2] 98 % of control | [3] 102 % of control

CCCN=C(N)c1ccc(NC(=O)c2ccc(C(=O)Nc3ccc(C(N)=NCCC)cc3)cc2)cc1
inactive: dose: 0.16 mg/kg/injection, schedule: Q01DX Z (ip), vehicle: carboxymethylcellulose (CMC) 105 % of control | dose: 0.31 mg/kg/injection, schedule: Q01DX Z (ip), vehicle: carboxymethylcellulose (CMC) 113 % of control | dose: 3.0 mg/kg/injection, schedule: Q01DX001 (ip), vehicle: carboxymethylcellulose (CMC) 114 % of control | dose: 10.0 mg/kg/injection, schedule: Q01DX Z (ip), vehicle: carboxymethylcellulose (CMC) 113 % of control | dose: 50.0 mg/kg/injection, schedule: Q01DX Z (oral), vehicle: carboxymethylcellulose (CMC) 104 % of control | dose: 100.0 mg/kg/injection, schedule: Q01DX Z (oral), vehicle: carboxymethylcellulose (CMC) 107 % of control | dose: 200.0 mg/kg/injection, schedule: Q01DX Z (oral), vehicle: carboxymethylcellulose (CMC) 103 % of control | dose: 400.0 mg/kg/injection, schedule: Q01DX Z (oral), vehicle: carboxymethylcellulose (CMC) 98 % of control
active: dose: 1.25 mg/kg/injection, schedule: Q01DX Z (ip), vehicle: carboxymethylcellulose (CMC) 211 % of control and 257 % of control | dose: 2.5 mg/kg/injection, schedule: Q01DX Z (ip), vehicle: carboxymethylcellulose (CMC) 190 % of control | dose: 10.0 mg/kg/injection, schedule: Q01DX001 (ip), vehicle: carboxymethylcellulose (CMC) 169 % of control | dose: 10.0 mg/kg/injection, schedule: Q01DX001 (ip), vehicle: other 157 % of control | dose: 15.0 mg/kg/injection, schedule: Q01DX001 (ip), vehicle: carboxymethylcellulose (CMC) 176 % of control and 180 % of control | dose: 15.0 mg/kg/injection, schedule: Q01DX001 (ip), vehicle: other 168 % of control and 191 % of control | dose: 22.5 mg/kg/injection, schedule: Q01DX001 (ip), vehicle: carboxymethylcellulose (CMC) 268 % of control | dose: 22.5 mg/kg/injection, schedule: Q01DX001 (ip), vehicle: other 234 % of control | dose: 33.0 mg/kg/injection, schedule: Q01DX001 (ip), vehicle: carboxymethylcellulose (CMC) 257 % of control | dose: 33.0 mg/kg/injection, schedule: Q01DX001 (ip), vehicle: other 269 % of control

CCOC1(CC)CN(Cc2ccccc2)CCO1 (centres undefined)
inactive: [2] 103 % of control | [3] 93 % of control | [4] 98 % of control

Oc1ccccc1N=CC1CCCCC1
inactive: [5] 87 % of control | [6] 88 % of control | [7] 92 % of control

Nn1cnnc1
inactive: dose: 25.0 mg/kg/injection, schedule: Q01DX009 (ip), vehicle: saline 93 % of control | dose: 50.0 mg/kg/injection, schedule: Q01DX009 (ip), vehicle: saline 103 % of control | dose: 100.0 mg/kg/injection, schedule: Q01DX009 (ip), vehicle: saline 86 % of control and 88 % of control | [8] 104 % of control | [9] 96 % of control | [10] 102 % of control

CC1=CCC2C(C)(C)CCCC2(C)C1CO (centres undefined)
inactive: dose: 75.0 mg/kg/injection, schedule: Q01DX001 (ip), vehicle: saline 98 % of control | dose: 150.0 mg/kg/injection, schedule: Q01DX001 (ip), vehicle: saline 100 % of control | dose: 300.0 mg/kg/injection, schedule: Q01DX001 (ip), vehicle: saline 95 % of control

COc1cc(N(CCCl)CCCl)ccc1C=Nc1ccccc1-n1ccnc1
inactive: dose: 68.8 mg/kg/injection, schedule: Q04DX002 (ip), vehicle: Klucel (hydroxypropylcellulose) (HPC) 102 % of control | dose: 137.5 mg/kg/injection, schedule: Q04DX002 (ip), vehicle: Klucel (hydroxypropylcellulose) (HPC) 91 % of control | dose: 275.0 mg/kg/injection, schedule: Q04DX002 (ip), vehicle: Klucel (hydroxypropylcellulose) (HPC) 102 % of control

CCNC(=O)C1C2C=CC(C2)C1C(=O)NCC (centres undefined)
inactive: [5] 91 % of control | [6] 96 % of control | [7] 87 % of control

O=[N+]([O-])c1cccc(S(=O)(=O)Oc2ccccc2)c1
inactive: [2] 102 % of control | [3] 95 % of control | [4] 101 % of control

C=CCC1(C(C)C=C)C(=O)NC(=O)NC1=O (centres undefined)
inactive: dose: 75.0 mg/kg/injection, schedule: Q01DX001 (ip), vehicle: carboxymethylcellulose (CMC) 98 % of control | dose: 150.0 mg/kg/injection, schedule: Q01DX001 (ip), vehicle: carboxymethylcellulose (CMC) 91 % of control | dose: 300.0 mg/kg/injection, schedule: Q01DX001 (ip), vehicle: carboxymethylcellulose (CMC) 96 % of control

N=C(N)C[n+]1ccccc1
inactive: [11] 98 % of control | [8] 95 % of control | [12] 109 % of control | [9] 111 % of control | [13] 104 % of control | [10] 89 % of control

O=C(Nc1ccccc1Cl)Oc1c(Cl)cc(Cl)c2ccccc12
inactive: dose: 25.0 mg/kg/injection, schedule: Q01DX009 (ip), vehicle: Klucel (hydroxypropylcellulose) (HPC) 100 % of control | [1] 105 % of control | dose: 100.0 mg/kg/injection, schedule: Q04DX002 (ip), vehicle: Klucel (hydroxypropylcellulose) (HPC) 91 % of control

C/C=C\c1ccc(OCCOC(=O)Nc2ccc(Cl)cc2C(F)(F)F)c(OC)c1
inactive: dose: 100.0 mg/kg/injection, schedule: Q01DX009 (ip), vehicle: saline with Tween-80 91 % of control | dose: 200.0 mg/kg/injection, schedule: Q01DX009 (ip), vehicle: saline with Tween-80 96 % of control | dose: 400.0 mg/kg/injection, schedule: Q01DX009 (ip), vehicle: saline with Tween-80 89 % of control

Oc1ccc(Br)cc1-c1nc2cc3ccccc3cc2nc1-c1cc(Br)ccc1O
inactive: [11] 103 % of control | [12] 96 % of control | [13] 94 % of control

CCc1cc2c(cc1C(=O)/C=C\c1cccc3ccccc13)C(C)(C)CCC2(C)C
inactive: dose: 25.0 mg/kg/injection, schedule: Q04DX002 (ip), vehicle: saline with Tween-80 89 % of control | dose: 100.0 mg/kg/injection, schedule: Q04DX002 (ip), vehicle: saline with Tween-80 89 % of control
